Assay results: ChEMBL document CHEMBL1201862, “PubChem BioAssay data set” (2004)
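Growth conditions: 96-well plates. Treatment: test compound, 48 hours, 5 concentrations. Analysis: linear interpolation between bracketing concentrations; unreached endpoints set to highest concentration. The concentration for 50% growth inhibition is given as GI50.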 Calls of active or inactive are those of the source. Rule as the data show it: active = GI50 up to about 1.1 µM and inactive = higher.

How the values were obtained:
Assay in all cases: NCI anticancer screen, dose series, 48 h
SK-MEL-2 = tested on: SK-MEL-2
LOX IMVI = tested on: LOX IMVI
OVCAR-8 = tested on: OVCAR-8
SK-MEL-5 = tested on: SK-MEL-5
SR = tested on: SR
UO-31 = tested on: UO-31
RXF 393 = tested on: RXF 393
CCRF-CEM = tested on: CCRF-CEM
U-251 = tested on: U-251
UACC-62 = tested on: UACC-62
OVCAR-5 = tested on: OVCAR-5
SNB-19 = tested on: SNB-19
HCT-15 = tested on: HCT-15
HL-60 = tested on: HL-60
NCI-H226 = tested on: NCI-H226
HOP-92 = tested on: HOP-92

Structure (SMILES) | GI50 (SK-MEL-2) | GI50 (LOX IMVI) | GI50 (OVCAR-8) | GI50 (SK-MEL-5) | GI50 (SR) | GI50 (UO-31) | GI50 (RXF 393) | GI50 (CCRF-CEM) | GI50 (U-251) | GI50 (UACC-62) | GI50 (OVCAR-5) | GI50 (SNB-19) | GI50 (HCT-15) [µM] | GI50 (HL-60) | GI50 (NCI-H226) | GI50 (HOP-92)
COc1ccc(N/N=C(\CCN(C)C)c2ccccc2)cc1 | 4.49 µM (inactive) | 2.07 µM (inactive) | 12.8 µM (inactive) | 6.37 µM (inactive) | 3.17 µM (inactive) | 1.37 µM (inactive) | 15.7 µM (inactive) | 1.41 µM (inactive) | 1.79 µM (inactive) | 1.9 µM (inactive) | 9.57 µM (inactive) | 3.01 µM (inactive) | 1.15 | 2.82 µM (inactive) | – | –
c1cnc2c(c1)-n1cccc1C1(CCSC1)NN2 (centres undefined) | > 100 µM (inactive) | > 100 µM (inactive) | > 100 µM (inactive) | > 100 µM (inactive) | > 100 µM (inactive) | > 100 µM (inactive) | – | > 100 µM (inactive) | > 100 µM (inactive) | – | > 100 µM (inactive) | > 100 µM (inactive) | > 100 | > 100 µM (inactive) | > 100 µM (inactive) | –
CCOC(=O)C1(Br)C(c2ccccc2)NC(=O)N(C2OC(COC(=O)c3ccccc3)C(OC(=O)c3ccccc3)C2OC(=O)c2ccccc2)C1(C)Br (centres undefined) | 31.5 µM (inactive) | 21.8 µM (inactive) | 17.3 µM (inactive) | 15.2 µM (inactive) | – | 25.9 µM (inactive) | 14.5 µM (inactive) | 3.15 µM (inactive) | 27.8 µM (inactive) | 10.6 µM (inactive) | – | 39.9 µM (inactive) | 15.8 | 0.0565 µM (active) | – | 18.1 µM (inactive)
COc1cc(C)c(C)c(OC(=O)c2c(C)c(C)c(OC)c(C)c2OC)c1C | 5.04 µM (inactive) | 4.75 µM (inactive) | 19.5 µM (inactive) | 5.02 µM (inactive) | 4.23 µM (inactive) | 32.4 µM (inactive) | 13 µM (inactive) | 13.2 µM (inactive) | 3.74 µM (inactive) | 6.71 µM (inactive) | 28.8 µM (inactive) | 15.4 µM (inactive) | 3.68 | 10 µM (inactive) | 15.7 µM (inactive) | 7.19 µM (inactive)
C[C@]12CCC[C@H](Cl)C1(O)C[C@H](C(=O)O)CC2 (some centres undefined) | > 100 µM (inactive) | > 100 µM (inactive) | > 100 µM (inactive) | > 100 µM (inactive) | > 100 µM (inactive) | > 100 µM (inactive) | > 100 µM (inactive) | > 100 µM (inactive) | > 100 µM (inactive) | > 100 µM (inactive) | > 100 µM (inactive) | > 100 µM (inactive) | > 100 | > 100 µM (inactive) | > 100 µM (inactive) | > 100 µM (inactive)
OCC1CC2C=CCC(C2)C1 (centres undefined) | > 100 µM (inactive) | > 100 µM (inactive) | > 100 µM (inactive) | > 100 µM (inactive) | > 100 µM (inactive) | > 100 µM (inactive) | > 100 µM (inactive) | > 100 µM (inactive) | > 100 µM (inactive) | > 100 µM (inactive) | > 100 µM (inactive) | > 100 µM (inactive) | – | > 100 µM (inactive) | > 100 µM (inactive) | > 100 µM (inactive)
O=C(O)/C(Cl)=C(\Cl)C(=O)Nc1ccccc1 | > 100 µM (inactive) | > 100 µM (inactive) | – | > 100 µM (inactive) | > 100 µM (inactive) | > 100 µM (inactive) | > 100 µM (inactive) | 69.3 µM (inactive) | > 100 µM (inactive) | > 100 µM (inactive) | > 100 µM (inactive) | > 100 µM (inactive) | > 100 | – | > 100 µM (inactive) | > 100 µM (inactive)
Nc1ccc(N)c2c1C(=O)c1c(N)ccc(N)c1C2=O | > 84.7 µM (inactive) | > 31.6 µM (inactive) | 58.9 µM (inactive) | 37.8 µM (inactive) | – | 41.8 µM (inactive) | 35 µM (inactive) | 23.8 µM (inactive) | 50 µM (inactive) | 58.3 µM (inactive) | > 100 µM (inactive) | 47.8 µM (inactive) | > 66.5 | 45.6 µM (inactive) | 14.6 µM (inactive) | 36.6 µM (inactive)
COC(=O)C(Cc1nc2ccccc2nc1O)C(=O)C(=O)Nc1ccc(OC)cc1[N+](=O)[O-] (centres undefined) | > 100 µM (inactive) | > 100 µM (inactive) | > 100 µM (inactive) | > 100 µM (inactive) | > 100 µM (inactive) | > 100 µM (inactive) | – | > 100 µM (inactive) | > 100 µM (inactive) | > 100 µM (inactive) | > 100 µM (inactive) | > 100 µM (inactive) | > 100 | > 100 µM (inactive) | > 100 µM (inactive) | 96.2 µM (inactive)
N#CC1(c2nc3ccccc3o2)C(=O)C(=O)N(c2ccc(Cl)c(Cl)c2)C(=O)C1=O | > 100 µM (inactive) | > 100 µM (inactive) | > 100 µM (inactive) | > 100 µM (inactive) | – | > 100 µM (inactive) | > 100 µM (inactive) | 48 µM (inactive) | – | – | > 100 µM (inactive) | > 100 µM (inactive) | 74.6 | 26 µM (inactive) | > 100 µM (inactive) | 12.2 µM (inactive)
